US12414927B2, “CXCR5 antagonists and methods of treating diseases or disorders using same” (YALE UNIVERSITY, priority 2020, dated 2025)
Entries after “also recorded” stand apart in the source; their conditions may differ. Blank lines part the entries; values can stand above or below the molecule they belong to.

Assays:
Raji cell line = assay: Proliferation of CXCR5-expressing Burkitt's B-cell lymphoma cell line over 7 days; format: cell-based; details: 7-day period, media containing 5% FBS, various doses, DMSO negative control
Source text: FIG. 3 illustrates proliferation of the CXCR5-expressing Burkitt's B-cell lymphoma cell line (Raji cell line) over a 7-day period in the media containing 5% FBS in the presence of various doses of Compound 2 or Compound 3 (1-(2-isobutyl-3-methylbenzamido)-2,3-dihydro-1H-indene-1-carboxylic acid). […] DMSO is shown as a negative control.
At this time a Tfh or AITL cell line has not been developed. Thus, a B-cell lymphoma cell line (Raji) was used to determine whether the contemplated compounds can inhibit proliferation. In this experiment, Compound 2 was compared to analogue Compound 3 over a 7-day period (FIG. 3).

human CXCR5 [1] = molecular target: T1, human CXCR5 (Homo sapiens, UniProt P32302); assay: Calcium assay: inhibition of Gaq-mediated Ca2+ flux at an EC80 of CXCL13 agonist; format: cell-based; details: HEK-293 cells transfected with human CXCR5, in the presence or absence of BSA
T1 construct: expressed in transfected cells; host or cells: HEK-293 (division-arrested, stably expressing)
T1 sequence (P32302 1-372): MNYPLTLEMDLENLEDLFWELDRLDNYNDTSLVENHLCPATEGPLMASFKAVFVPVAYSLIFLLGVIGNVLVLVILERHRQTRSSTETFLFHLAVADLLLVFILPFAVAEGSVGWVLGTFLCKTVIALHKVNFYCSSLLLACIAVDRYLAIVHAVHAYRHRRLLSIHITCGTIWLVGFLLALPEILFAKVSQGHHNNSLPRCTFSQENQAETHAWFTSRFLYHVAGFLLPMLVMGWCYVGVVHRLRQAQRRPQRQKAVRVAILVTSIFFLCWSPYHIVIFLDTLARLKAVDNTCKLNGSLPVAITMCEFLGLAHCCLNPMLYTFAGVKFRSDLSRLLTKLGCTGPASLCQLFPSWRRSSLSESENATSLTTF
Procedure: FIGS. 1A-1B illustrate inhibition of Gaq-mediated Ca^2+ flux for certain compounds of the disclosure. The assays use HEK cells stably expressing functional human CXCR5 and measure inhibition of Gaq-mediated Ca^2+ flux at an EC80 of CXCL13 agonist. Assays were performed in HBSS buffer (FIG. 1A) and HBSS buffer+1% BSA (FIG. 1B); the compounds were active in the presence of the bovine serum albumin, without significant change in an IC50 value. Compound 1 is 2-(3-methyl-2-(2-methylprop-1-en-1-yl)benzamido)-2,3-dihydro-1H-indene-2-carboxylic acid; Compound 2 is 2-(2-isobutyl-3-methylbenzamido)-2,3-dihydro-1H-indene-2-carboxylic acid.
(§1) These assays were performed in division-arrested HEK-293 cells transfected with human CXCR5. The CXCL13 ligand was used as agonist.
The calcium assay allows homogeneous measurement of intracellular calcium changes caused by activation of G-protein coupled receptors or calcium channels.
For adherent cells, plate 50K to 70K cells/well for a 96 well plate and 12K to 20K cells/well for a 384 well plate the day before the experiment. Add 100 μl/well of cell suspension to 96-well plates or 25 μl/well to 384-well plates, allow cells to attach and grow overnight for 16 to 24 hours in cell culture incubators. Prior to dye loading the plate, examine the cells for confluency and overall health.
1. […]

human CXCR5 [2] = molecular target: T1, human CXCR5; assay: Cyclic AMP assay: inhibition of Gai-mediated decrease of cAMP at an EC80 of CXCL13; format: cell-based; details: HEK-293 cells transfected with human CXCR5, in the presence or absence of BSA
Procedure: FIGS. 2A-2B illustrate inhibition of Gat-mediated decrease of cAMP for certain compounds of the disclosure. The assays use HEK cells stably expressing functional human CXCR5 and measure inhibition of Gat-mediated decrease of cAMP at an EC80 of CXCL13. Assays were performed in HBSS buffer (FIG. 2A) and HBSS buffer+1% BSA (FIG. 2B); the compounds were active in the presence of the bovine serum albumin, without significant change in an IC50 value.
as §1

[3] = Preliminary toxicity/tolerability study, 40 mg/kg BID by oral gavage; format: in vivo, NSG mice
Procedure: FIG. 8 illustrates absolute body weight for mice treated with Compound 2, 40 mg/kg BID. 5 NSG mice (highly immunodeficient, same strain as in the in vivo efficacy study) were tested. Compound 2 was administered via oral gavage, BID (twice a day) for 14 days. […] Body weight was monitored daily. Mean body weight loss was <4%, confirming tolerability.
It was decided that a dose of 40 mg/kg would be used in the AITL PDX studies (design outlined in FIG. 6). Prior to the study, preliminary 1-week toxicity studies were performed on the NSG immunocompromised mice (NOD/SCID, IL-2R knockout) that would be used on the AITL PDX study (FIG. 8).

[4] = In vivo PK, oral doses of 10, 30 and 60 mg/kg; parameters: species or system female CB.17 SCID mice; details: oral 10, 30 and 60 mg/kg
Procedure: FIG. 5 illustrates in vivo PK results for multiple doses of Compound 2 administered orally. 9 female CB.17 SCID mice per group were used except for vehicle control group, where 15 mice were tested. Three drug doses were used (10, 30 and 60 mg/kg), with dosing volume of 10 mL/kg (0.200 mL/20 g mouse) for each dose. Volume was adjusted for body weight, and analysis was run at 6 different time points.
(§2) For suitability of murine AITL patient derived xenografts (PDX) studies, pharmacokinetics (PK) of Compound 2 were determined by IV, oral, and IP administration (FIG. 4). These parameters provided confidence for oral administration studies at different doses and are suitable for further PK studies at 24-hour measurement at different oral doses. The study allowed one to determine the dose that results in a blood level of ˜IC80.

[5] = tested on: patient-derived AITL tissue; assay: In vivo efficacy in AITL patient-derived xenograft (human CD45+ cells)
Procedure: FIGS. 9A-9B illustrate CD45 levels in bone marrow (FIG. 9A) and peripheral blood (FIG. 9B) of mice treated with Compound 2 or vehicle. […] (NOD/SCID, IL-2R knockout) mice (8 animals per group) were implanted with patient-derived AITL tissue. Compound 2 binds to human but not to murine CXCR5. Animals were treated with vehicle or 40 mg/kg Compound 2 via oral gavage 2×/day. t test comparing all mice at the time of sacrifice was performed to analyze the data. Error bars—SEM.
For in vivo efficacy study, mice were implanted with AITL PDX and engraftment levels were quantified in each animal as circulating human CD45+ cells levels in blood. Dosing began when average engraftment reached 0.13%, and the cohort was treated for 42 days. The mice were monitored weekly for weight loss and daily for any clinical mortality observation. Only 1 treated mouse lost weight (14%) during the first week but gained it back and was otherwise stable similar to the other mice. Blood was drawn at 0, 14, and 28 days after the dosing started, and before euthanasia to measure tumor burden. […] When mice were sacrificed, various organs were removed and stored at −80° C. At the end of the study (42 days of dosing), 3 and 5 mice treated with vehicle or Compound 2, respectively, were still alive. […] The absolute percentage in the blood was 44.5% and 57.6% for treated and untreated mice, respectively.
PDX was implanted into immunocompromised NSG mice.
Starting at around 21 days after implantation, animals are examined for engraftment every 1-2 weeks. Engraftment is determined by measuring human CD45+ cells in blood (flow cytometry).
After engraftment is observed, animals are dosed by oral gavage every 10-14 hours with vehicle (untreated groups) or with compound YU241279 at 40 mg/kg (treated groups).
Animals are evaluated for general health daily and weighed twice per week; circulating human CD45+ cells are measured on days 14 and 28 after treatment initiation to evaluate tumor progression. Based on day 28 analysis, treatment may be extended (the decision to extend the dosing is based on the health status of the vehicle group: CD45 (<50%), lack of morbidity by day 28); Readouts at conclusion of the study include spleen weight, survival, and flow cytometry assessment for human CD45+ cells in blood and bone marrow.

[6] = In vivo PK, single dose by IV, PO or IP route
Procedure: Three groups of 30 mice (male, CD-1) were dosed via one route per group (PO, IP, or IV). Single dose level was used per route of administration. Dosing level (mg/kg): IV (1 mg/kg); PO (10 mg/kg); and IP (10 mg/kg). […] Blood collections were terminal for each mouse, so triplicate data was obtained for each time point.

human CXCR5 [7] = molecular target: T1, human CXCR5; assay: Binding to human CXCR5
murine CXCR5 = molecular target: T2, murine CXCR5 (Mus musculus, UniProt Q04683); assay: Binding to murine CXCR5
T2 sequence (Q04683 1-374): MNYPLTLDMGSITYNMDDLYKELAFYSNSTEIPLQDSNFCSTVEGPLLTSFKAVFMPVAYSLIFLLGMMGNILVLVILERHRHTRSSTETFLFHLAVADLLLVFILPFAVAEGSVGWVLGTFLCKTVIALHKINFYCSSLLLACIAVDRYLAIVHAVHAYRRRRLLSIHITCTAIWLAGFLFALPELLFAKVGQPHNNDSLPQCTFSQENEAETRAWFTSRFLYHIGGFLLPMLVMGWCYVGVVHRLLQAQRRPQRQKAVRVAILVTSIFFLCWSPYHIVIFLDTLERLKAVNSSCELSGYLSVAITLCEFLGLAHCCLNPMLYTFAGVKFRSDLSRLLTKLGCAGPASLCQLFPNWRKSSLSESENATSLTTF

[8] = 10-day oral dosing PK/tolerability study, 30 mg/kg every 12 hours; format: in vivo, female CB.17 SCID mice
Procedure: FIG. 6 illustrates a dosing scheme for oral administration of Compound 2 over 10 days. Female CB.17 SCID mice were dosed according to the table shown: Groups 1-2 were treated with the drug and Group 3 animals were treated with vehicle control. Mice were orally dosed at 30 mg/kg every 12 hours for 10 days. Group 2 (18 animals total, alternating animals) were used for PK blood analysis, and Group 1 (5 animals total) were sacrificed at end point for gross necropsy.
FIGS. 7A-7B illustrate in vivo PK results for multiple doses of Compound 2 (30 mg/kg) administered orally over 10 days. […] No change in slope of decrease indicated no change in rate of metabolism.
as §2

[9] = 40 mg/kg oral gavage BID for 14 days, 5 NSG mice
[10] = 40 mg/ml (so in the source), NSG mice
[11] = at death, 40 mg/kg oral, treated mice

Structure (SMILES): Cc1cccc(C(=O)NC2(C(=O)O)CCc3ccccc32)c1CC(C)C (stereo not shown) [Compound 3, 1-(2-isobutyl-3-methylbenzamido)-2,3-dihydro-1H-indene-1-carboxylic acid]
proliferation of Raji cells (Raji cell line): less potent than Compound 2

activity in calcium assay (inhibition of Gaq-mediated Ca2+ flux) (human CXCR5 [1]): sub-micromolar
activity in cyclic AMP assay (inhibition of decrease of cAMP) (human CXCR5 [2]): sub-micromolar
Structure (SMILES): CC(C)=Cc1c(C)cccc1C(=O)NC1(C(=O)O)Cc2ccccc2C1 [Compound 1, 2-(3-methyl-2-(2-methylprop-1-en-1-yl)benzamido)-2,3-dihydro-1H-indene-2-carboxylic acid]

Structure (SMILES): Cc1cccc(C(=O)NC2(C(=O)O)Cc3ccccc3C2)c1CC(C)C [Compound 2, 2-(2-isobutyl-3-methylbenzamido)-2,3-dihydro-1H-indene-2-carboxylic acid]
mean body weight loss [3, 9]: < 4%
morbidity [3, 9]: No morbidity was observed
body weight gain compared with vehicle [3, 10]: did not gain weight as fast as the mice treated with vehicle
other abnormalities [3, 10]: no other abnormalities observed
activity in calcium assay (inhibition of Gaq-mediated Ca2+ flux) (human CXCR5 [1]): sub-micromolar
compound blood level versus compound amount administered [4]: clear increase in compound blood level versus compound amount administered
tumor loads in peripheral blood and bone marrow compared to vehicle control ([5]; 40 mg/kg oral gavage 2x/day, at time of sacrifice): Significantly reduced tumor loads
mice still alive at the end of the study ([5]; 42 days of dosing, 8 animals per group): 5
absolute percentage of human CD45+ in the blood [5, 11]: 44.5%
absolute percentage of human CD45+ in the bone marrow [5, 11]: 10.6%
weight loss of the only treated mouse that lost weight ([5]; first week of dosing, 1 treated mouse, regained afterwards): 14%
clinical observations ([6]; IV arm subsequently dosed at 0.2 mg/mL delivered at 5 mL/kg): without any adverse observations
clinical observations ([6]; original IV group, single dose): labored breathing, decreased activity, and death
bioavailability ([6]; pharmacokinetic study in mice): confirmed bioavailability
binding to human CXCR5 (human CXCR5 [7]): binds
binding to murine CXCR5 (murine CXCR5): not
tolerability ([8]; 10-day study at 30 mg/kg oral): demonstrated tolerability
health of animals ([8]; oral 30 mg/kg every 12 hours for 10 days, during dosing and for 2 weeks following): good health
change of compound metabolism over dosing period ([8]; oral 30 mg/kg every 12 hours, 10 days, first two doses versus 20th dose, 30 mg/kg): compound metabolism was unchanged; also recorded: no change metabolism
blood levels relative to IC50 between doses ([8]; oral 30 mg/kg, 12 hours between doses): remained above IC50 for full 12 hours
activity in cyclic AMP assay (inhibition of decrease of cAMP) (human CXCR5 [2]): sub-micromolar
proliferation of Raji cells (Raji cell line): dose-dependent decrease in proliferation; also recorded: clearly inhibited proliferation
